Measured values published in ChEMBL document CHEMBL1201862, “PubChem BioAssay data set” (2004).
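A five-concentration, 48-hour dose response in 96-well plates underlies each endpoint, interpolated linearly between surrounding concentrations. GI50 is the concentration that inhibits growth by half.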 The source made the active and inactive calls. Cut-off read from the data, not from the text of the source: active = GI50 up to about 1.1 µM and inactive = higher.

Assays:
Assay in all cases: NCI anticancer screen, dose series, 48 h
OVCAR-5 = tested on: OVCAR-5
786-0 = tested on: 786-0
A549 = tested on: A549
ACHN = tested on: ACHN
EKVX = tested on: EKVX
NCI/ADR-RES = tested on: NCI/ADR-RES
OVCAR-8 = tested on: OVCAR-8
SR = tested on: SR
SF-295 = tested on: SF-295
SK-MEL-28 = tested on: SK-MEL-28
UO-31 = tested on: UO-31
HL-60 = tested on: HL-60
CCRF-CEM = tested on: CCRF-CEM
OVCAR-4 = tested on: OVCAR-4
SN12C = tested on: SN12C
LOX IMVI = tested on: LOX IMVI
IGROV-1 = tested on: IGROV-1
HT-29 = tested on: HT-29
UACC-257 = tested on: UACC-257
NCI-H226 = tested on: NCI-H226
MDA-MB-435 = tested on: MDA-MB-435
K562 = tested on: K562
RXF 393 = tested on: RXF 393
KM12 = tested on: KM12
Hs-578T = tested on: Hs-578T
SF-539 = tested on: SF-539
A498 = tested on: A498
U-251 = tested on: U-251
HOP-92 = tested on: HOP-92
T47D = tested on: T47D
UACC-62 = tested on: UACC-62
MOLT-4 = tested on: MOLT-4
MCF7 = tested on: MCF7
SF-268 = tested on: SF-268
TK-10 = tested on: TK-10
SW-620 = tested on: SW-620
M14 = tested on: M14
NCI-H23 = tested on: NCI-H23
COLO 205 = tested on: COLO 205
RPMI-8226 = tested on: RPMI-8226
CAKI-1 = tested on: CAKI-1
HCC 2998 = tested on: HCC 2998
HOP-62 = tested on: HOP-62
OVCAR-3 = tested on: OVCAR-3
SK-OV-3 = tested on: SK-OV-3
NCI-H460 = tested on: NCI-H460
MDA-N = tested on: MDA-N
SK-MEL-5 = tested on: SK-MEL-5
HCT-15 = tested on: HCT-15
DU-145 = tested on: DU-145
SNB-75 = tested on: SNB-75
NCI-H522 = tested on: NCI-H522
HCT-116 = tested on: HCT-116
PC-3 = tested on: PC-3
MDA-MB-231 = tested on: MDA-MB-231
SK-MEL-2 = tested on: SK-MEL-2
SNB-19 = tested on: SNB-19

O=C(CC(C(=O)c1ccsc1)c1ccccc1)c1ccccc1 (stereo unspecified)
GI50 (OVCAR-5): > 100 µM (inactive)
GI50 (786-0): > 100 µM (inactive)
GI50 (A549): 28 µM (inactive)
GI50 (ACHN): > 100 µM (inactive)
GI50 (EKVX): > 100 µM (inactive)
GI50 (NCI/ADR-RES): 18.7 µM (inactive)
GI50 (OVCAR-8): > 100 µM (inactive)
GI50 (SR): > 100 µM (inactive)
GI50 (SF-295): 76.9 µM (inactive)
GI50 (SK-MEL-28): 7.28 µM (inactive)
GI50 (UO-31): > 100 µM (inactive)
GI50 (HL-60): 0.484 µM (active)
GI50 (CCRF-CEM): 69.2 µM (inactive)
GI50 (OVCAR-4): 6.5 µM (inactive)
GI50 (SN12C): > 100 µM (inactive)
GI50 (LOX IMVI): > 100 µM (inactive)
GI50 (IGROV-1): > 100 µM (inactive)
GI50 (HT-29): > 100 µM (inactive)
GI50 (UACC-257): > 100 µM (inactive)
GI50 (NCI-H226): 74.1 µM (inactive)
GI50 (MDA-MB-435): 54.2 µM (inactive)
GI50 (K562): > 100 µM (inactive)
GI50 (RXF 393): > 100 µM (inactive)
GI50 (KM12): 49.9 µM (inactive)
GI50 (Hs-578T): > 100 µM (inactive)
GI50 (SF-539): > 100 µM (inactive)
GI50 (A498): 25.8 µM (inactive)
GI50 (U-251): 95.9 µM (inactive)
GI50 (HOP-92): > 100 µM (inactive)
GI50 (T47D): 20.2 µM (inactive)
GI50 (UACC-62): 71.1 µM (inactive)
GI50 (MOLT-4): > 100 µM (inactive)
GI50 (MCF7): > 100 µM (inactive)
GI50 (SF-268): > 100 µM (inactive)
GI50 (TK-10): > 100 µM (inactive)
GI50 (SW-620): > 100 µM (inactive)
GI50 (M14): > 100 µM (inactive)
GI50 (NCI-H23): 0.0217 µM (active)
GI50 (COLO 205): > 100 µM (inactive)
GI50 (RPMI-8226): > 100 µM (inactive)
GI50 (CAKI-1): > 100 µM (inactive)
GI50 (HCC 2998): > 100 µM (inactive)
GI50 (HOP-62): > 100 µM (inactive)
GI50 (OVCAR-3): > 100 µM (inactive)
GI50 (SK-OV-3): > 100 µM (inactive)
GI50 (NCI-H460): > 100 µM (inactive)
GI50 (MDA-N): > 100 µM (inactive)
GI50 (SK-MEL-5): 43.2 µM (inactive)
GI50 (HCT-15): 83.9 µM
GI50 (DU-145): > 100 µM (inactive)
GI50 (SNB-75): > 100 µM (inactive)
GI50 (NCI-H522): 34.8 µM (inactive)
GI50 (HCT-116): 75 µM (inactive)

CCP(=S)(CC)CCl
GI50 (OVCAR-5): > 100 µM (inactive)
GI50 (A549): > 100 µM (inactive)
GI50 (ACHN): > 100 µM (inactive)
GI50 (PC-3): > 100 µM (inactive)
GI50 (NCI/ADR-RES): > 100 µM (inactive)
GI50 (OVCAR-8): > 100 µM (inactive)
GI50 (SR): > 100 µM (inactive)
GI50 (SF-295): > 100 µM (inactive)
GI50 (SK-MEL-28): > 100 µM (inactive)
GI50 (UO-31): > 100 µM (inactive)
GI50 (HL-60): > 100 µM (inactive)
GI50 (CCRF-CEM): > 100 µM (inactive)
GI50 (OVCAR-4): > 100 µM (inactive)
GI50 (SN12C): > 100 µM (inactive)
GI50 (LOX IMVI): > 100 µM (inactive)
GI50 (IGROV-1): > 100 µM (inactive)
GI50 (HT-29): > 100 µM (inactive)
GI50 (UACC-257): > 100 µM (inactive)
GI50 (NCI-H226): > 100 µM (inactive)
GI50 (K562): > 100 µM (inactive)
GI50 (Hs-578T): > 100 µM (inactive)
GI50 (U-251): > 100 µM (inactive)
GI50 (HOP-92): 73.5 µM (inactive)
GI50 (T47D): > 100 µM (inactive)
GI50 (MOLT-4): > 10 µM (inactive)
GI50 (MCF7): > 100 µM (inactive)
GI50 (TK-10): > 100 µM (inactive)
GI50 (SW-620): > 100 µM (inactive)
GI50 (M14): > 100 µM (inactive)
GI50 (NCI-H23): > 100 µM (inactive)
GI50 (COLO 205): > 100 µM (inactive)
GI50 (RPMI-8226): > 100 µM (inactive)
GI50 (MDA-MB-231): > 100 µM (inactive)
GI50 (CAKI-1): > 100 µM (inactive)
GI50 (HCC 2998): > 100 µM (inactive)
GI50 (HOP-62): > 100 µM (inactive)
GI50 (OVCAR-3): > 100 µM (inactive)
GI50 (SK-OV-3): > 100 µM (inactive)
GI50 (SK-MEL-2): > 100 µM (inactive)
GI50 (NCI-H460): > 100 µM (inactive)
GI50 (MDA-N): > 100 µM (inactive)
GI50 (SK-MEL-5): > 100 µM (inactive)
GI50 (HCT-15): > 100 µM
GI50 (DU-145): > 100 µM (inactive)
GI50 (SNB-75): > 100 µM (inactive)
GI50 (SNB-19): > 100 µM (inactive)
GI50 (NCI-H522): > 100 µM (inactive)
GI50 (HCT-116): > 100 µM (inactive)
